According to PubChem BioAssay (NCI):
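Briefly, cells in 96-well plates were exposed to five compound concentrations for 48 h, and endpoints were estimated by linear interpolation. GI50 = concentration required for 50% inhibition of growth. TGI: concentration producing complete growth inhibition.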

What was measured:
Assay in all cases: inhibition of tumour cell growth, NCI panel, 48 h
[1] = system: SNB-19 CNS
[2] = system: KM12 colon
[3] = system: EKVX NSCLC
[4] = system: CCRF-CEM leukemia
[5] = system: U251 CNS
[6] = system: NCI-H226 lung
[7] = system: NCI-H522 lung
[8] = system: SNB-75 CNS
[9] = system: UACC-257 melanoma
[10] = system: MALME-3M melanoma

SMILES	TGI [1]	TGI [2]	TGI [3]	TGI [4]	TGI [5]	TGI [6]	TGI [7]	TGI [8]	TGI [9]	TGI [10]	GI50 [1]	GI50 [2]	GI50 [4]	GI50 [5]	GI50 [6]	GI50 [7]	GI50 [8]	GI50 [9]	GI50 [10]	GI50 [3]
O=C(O)C1CCC(=O)N1S(=O)(=O)c1ccccc1 (stereo not given)	> 100 µM	> 100 µM	> 100 µM	> 100 µM	> 100 µM	> 100 µM	> 100 µM	> 100 µM	> 100 µM	> 100 µM										
CC(=O)C=NCC(=O)O	> 100 µM	> 100 µM	> 100 µM	> 100 µM	> 100 µM	> 100 µM	> 100 µM	> 100 µM	> 100 µM	> 100 µM										
CC(=O)OCC1=C(C(=O)O)C(c2ccc3c(c2)OCO3)c2cc3c(cc2O1)OCO3 (stereo not given)	> 100 µM		> 100 µM	> 100 µM	> 100 µM			> 100 µM	> 100 µM	> 100 µM										
O=C(Nc1c(C(=O)NC2CCCCC2)[nH]c(=O)[nH]c1=O)c1ccc(Cl)cc1		> 100 µM	> 100 µM	> 100 µM		> 100 µM	> 100 µM	85.1 µM		> 100 µM										
CCCC(N)C(=O)c1ccccc1 (stereo not given)	> 100 µM	> 100 µM	> 100 µM	> 100 µM	> 100 µM	> 100 µM	> 100 µM	> 100 µM	> 100 µM	> 100 µM										
COc1ccc(-c2nn(-c3cccc(NC(=O)Nc4ccccc4)c3)cc2-c2ccncc2)cc1Cl	> 100 µM	4.89 µM		8.31 µM	4.91 µM	5.81 µM	7.22 µM	2.79 µM	6.33 µM	4.83 µM	2.83 µM	2.25 µM	2.65 µM	1.99 µM	2.15 µM	2.5 µM	1.33 µM	2.5 µM	1.89 µM	
c1ccc(N=c2nc(N3CCOCC3)ss2)cc1	> 100 µM	32.5 µM	36.4 µM		28.6 µM	> 100 µM	25.3 µM	39 µM	29.8 µM	28.8 µM										
Fc1ccc(-c2nn3c(-c4cc(C(F)(F)F)cc(C(F)(F)F)c4)nnc3s2)cc1	> 50 µM	> 50 µM	> 50 µM	> 50 µM		> 50 µM	> 50 µM	2.36 µM			1.57 µM	> 50 µM	> 50 µM		1.49 µM	2.3 µM	0.886 µM			1.75 µM
CC(=O)O[C@H]1C=CC(=O)C(C)CC1C (stereo not given in full)	> 100 µM	> 100 µM	> 100 µM	> 100 µM	> 100 µM	> 100 µM	> 100 µM	> 100 µM	> 100 µM	> 100 µM										
Clc1ccc(CNc2nc(Cl)c3[nH]cnc3n2)cc1Cl	> 100 µM	> 100 µM	> 100 µM	> 100 µM	> 100 µM	78.9 µM	34.4 µM	> 100 µM	48.9 µM	> 100 µM										
N#CC(Nc1cccc(C(F)(F)F)c1)c1ccccc1C(F)(F)F (stereo not given)	31.9 µM	19.9 µM	28.7 µM	59.7 µM	30.5 µM	30.4 µM	17.1 µM	32.2 µM	27.7 µM	18 µM										
CCOc1ccc(/C(C=O)=C(\Cl)c2ccc(OC)c(OC)c2)cc1	> 100 µM		> 100 µM	> 100 µM	> 100 µM	> 100 µM	> 100 µM			> 100 µM										
CCC(=O)NC(Nc1cccc(F)c1)(C(F)(F)F)C(F)(F)F	> 100 µM	> 100 µM	> 100 µM	> 100 µM	> 100 µM		> 100 µM	> 100 µM	> 100 µM											
O=C(Nc1ccc(Sc2ccc(N=Nc3c(O)c(S(=O)(=O)O)cc4cc(S(=O)(=O)O)ccc34)cc2)cc1)c1ccc(N=Nc2c(O)ccc3c(S(=O)(=O)O)cc(S(=O)(=O)O)cc23)cc1	> 100 µM	> 100 µM	> 100 µM	77.4 µM	> 100 µM	> 100 µM	40.2 µM	> 100 µM	> 100 µM	72 µM										
Cc1cc2c(C(C)C)c(O)c(O)c(C=NCCO)c2c(O)c1-c1c(C)cc2c(C(C)C)c(O)c(O)c(C=NCCO)c2c1O	25.1 µM	2.4 µM	7.3 µM	5.78 µM	2.59 µM	6.88 µM	4.78 µM	9.13 µM	4.98 µM	9.36 µM										
NC1(C(=O)O)CCc2ccc(N(CCCl)CCCl)cc2C1 (stereo not given)	> 100 µM	> 100 µM	> 100 µM	> 100 µM	> 100 µM	> 100 µM	74.3 µM	> 100 µM	> 100 µM	2.2 µM										
